Measurements published in patent US11091428B2 (HAPLOGEN GMBH, priority 2016, dated 2021).
pEC50, pIC50: −log10 of the molar value. Like-named read-outs stand apart in the source and are kept apart here.

What was measured:
PLA2G16 = biological target: T1, PLA2G16 (Homo sapiens, UniProt P53816); experiment: Enzyme activity assay for PLA2G16 (Red/Green BODIPY PC-A2 fluorescence); type: biochemical; conditions: His-tagged PLA2G16, 4 min pre-incubation, 2 nM to 50 μM; read-out: IC50 values of the compounds determined in the enzyme activity assay for PLA2G16
T1 construct: Hexa-His (N); made in house; host or cells: E. coli BL21(DE3)
T1 sequence (P53816 1-162): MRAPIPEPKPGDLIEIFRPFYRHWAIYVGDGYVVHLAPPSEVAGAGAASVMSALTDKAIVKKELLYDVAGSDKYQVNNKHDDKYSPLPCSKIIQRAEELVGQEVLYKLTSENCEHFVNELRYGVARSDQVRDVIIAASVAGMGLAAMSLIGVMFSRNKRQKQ
Description: A cDNA for PLA2G16(NM_007069) was custom-synthesized by Genscript (Piscataway, USA) and inserted into a pET-based bacterial expression vector [Moffatt, B. A. and Studier, F. W. (1986) J. Mol. Biol. 189, 113-130; Rosenberg, A. H., Lade, B. N., Chui, D., Lin, S., Dunn, J. J., and Studier, F. W. (1987) Gene 56, 125-135], enabling the expression of N-terminally Hexa-His-tagged PLA2G16. E. coli BL21(DE3) (Agilent) were transformed with pET-His-PLA2G16according to the manufacturer's instructions and plated on Carbenicillin-containing agar plates (final concentration: 100 μg/mL). A single clone was in occulated in 100 mL LB medium supplemented with 100 μg/mL Carbenicillin and the in occulated culture was grown at 37° C. overnight in a rotary shaker. On the next day, the bacterial culture was diluted in LB medium supplemented with 100 μg/mL Carbenicillin (30 mL overnight culture in 800 mL total culture volume). Bacteria were grown at 37° C. until the OD600 reached 0.6. Gene expression was induced by addition of 1 mM isopropyl-β-D-thiogalactopyranosid (IPTG) for 2 h at 18° C. Subsequently, bacteria were harvested by centrifugation (15 min; 10,000×g; 4° C.) and frozen at −80° C. The bacterial pellet was resuspended in Buffer A (50 mM Tris/HCl pH 7.5, 500 mM NaCl, 5% glycerol, 5 mM β-Mercaptoethanol and 1 mM PMSF) and lysed by addition of 1 mg/mL lysozyme (Sigma Aldrich) and 100 μg/mL DNasel-(Roche). The sample was incubated at 30° C. for 30 min to allow lysis to occur. Then, the lysate was cleared by centrifugation (15,000×g, 15 min, 4° C.) and incubated with 1.5 mL Ni-NTA agarose suspension (Qiagen) for 60 min at 4° C. The Ni-NTA agarose was washed with 10 mL Buffer A. Bound protein was eluted by applying a manual gradient of Buffer A supplemented with increasing concentrations of imidazole (Sigma Aldrich; 25/50/75/100/250 mM). Purified fractions were analyzed by SDS-PAGE followed by Coomassie staining to assess the purity.
Activity of the protein was assessed as follows: Red/Green BODIPY® PC-A2 (Invitrogen, 1 mM in DMSO) was mixed with equal volumes of 1,2-Dioleoyl-sn-glycero-3-phosphocholine (DOPC; Sigma Aldrich, 10 mM in Ethanol) and 1,2-Dioleoyl-sn-glycero-3-phospho-rac-(1-glycerol) (DOPG; Sigma Aldrich, 10 mM in Ethanol) and 0.5 volumes of Cholesterol (CHOL; Sigma Aldrich, 10 mM in Ethanol) and vortexed for 5 s. The mixture (Red/Green BODIPY® PC-A2/DOPC/DOPG/CHOL) was diluted 1:91.4 in activity assay buffer (50 mM Tris/HCl pH 8.5, 100 mM NaCl) using a small-orifice pipette tip under constant vortexing. In the following, this preparation will be referred to as the “substrate solution”.
In order to evaluate their inhibitory potential, compounds were dissolved at 10 mM concentration in DMSO and directly spotted into assay plates (Corning, Cat. No. 3576) using acoustic liquid transfer (Labcyte Echo 525). Each compound was spotted at increasing concentrations, ranging from 2 nM to 50 μM (concentration in the final assay volume). 50 μl of PLA2G16 enzyme solution (diluted in activity buffer, supplemented with 5 mM L-Glutathione; Sigma Aldrich) was pre-incubated with compounds for 4 min., followed by addition of 50 μl of substrate solution. Fluorescence was recorded immediately after substrate addition for a total time of 10 min. using a SpectraMax M5 multimode reader (Excitation wavelength: 480 nm, emission wavelength: 530 nm). The relative increase of fluorescence over time is referred to as the enzyme activity. Half-maximal inhibitory concentrations (IC50) were derived by non-linear regression analysis using the drc package in R (R Development. Core Team, 2005).

[1] = tested on: picornaviruses (CVB1, HRV-A2, HRV-A23, EV-68); experiment: Anti-picornavirus cytopathic effect (CPE) reduction assay on HeLa H1 cells; type: cell-based
Description: The antiviral activity of selected compounds was tested using a cytopathic effect (CPE) reduction assay on HeLa H1 cells (ATCC CRL-1958). Briefly, cells were seeded in 96-well dishes (2×10^4 cells/well) in DMEM medium (Life technologies) supplemented with 10% FBS and PenStrep solution (100 U/mL Penicillin and 100 μg/mL streptomycin) and incubated at 37° C., 5% CO2 ovemight. The next day, cells were pre-treated with serial dilutions of the compound in DMEM medium supplemented with 2% FBS and PenStrep for 2 h at 37° C., 5% CO2. Next, cells were infected with virus (CVB1, HRV-A2, HRV-A23, EV-68) at an multiplicity of infection (MOI) which results in a complete virus-induced CPE within 2 days in control wells (infected and vehicle-treated). After 48 h, supematants were aspirated and 50 μl/well of CellTiterBlue reagent (Promega) diluted 1:5 in DMEM+2% FBS, was added to the cells. Plates were returned to the incubator and allowed to develop for 1.5 h. After that, plates were equilibrated to RT and subsequently, fluorescence was recorded (Excitation wavelength: 560 nm; emission wavelength: 590 nm) using a SpectraMax M5 multimode plate reader. Viability of cells was calculated according to the formula: V=(RFUCpd−RFUVeh/(RFUM−RFUVeh), where RFUCpd refers to infected and compound-treated cells, RFUVeh to infected and vehicle-treated cells and RFUM to uninfected and vehicle treated cells. Half-maximal effective concentrations (EC50) were calculated by non-linear regression analysis using the drc package in R (R Development. Core Team, 2005). EC50 categories as presented in Table 2 were calculated by averaging the EC50 values from four picornaviruses (CVB1, HRV-A2, HRV-A23, EV68).

[2] = Enterovirus B, CVB1|EV68|HRVA2|HRVA23, HeLa H1, 48 h, HeLa H1 cells, 48 h, category from averaging the EC50 values from four picornaviruses (CVB1, HRV-A2, HRV-A23, EV68), read-out: EC50 values of the compounds determined in the anti-picornavirus assay
[3] = Enterovirus B, HeLa H1, 48 h, HeLa H1 cells, 48 h, category from averaging the EC50 values from four picornaviruses (CVB1, HRV-A2, HRV-A23, EV68), read-out: EC50 values of the compounds determined in the anti-picornavirus assay
[4] = HeLa H1 cells, 48 h, category from averaging the EC50 values from four picornaviruses (CVB1, HRV-A2, HRV-A23, EV68), read-out: EC50 values of the compounds determined in the anti-picornavirus assay
[5] = Enterovirus B, HeLa H1, 48 h, read-out: EC50 values of the compounds determined in the anti-picornavirus assay, HeLa H1 cells, 48 h, category from averaging the EC50 values from four picornaviruses (CVB1, HRV-A2, HRV-A23, EV68)

O=C(NC1CC1)C(=O)[C@H]1CCC(=O)N1Cc1ccccc1
pIC50 (PLA2G16): > 6.00
pEC50 [1, 2]: > 6.00

O=C(NC1CC1)C(=O)C1CCC(=O)N1Cc1ccccc1 (centres unmarked)
pIC50 (PLA2G16): > 6.00
pEC50 [1, 2]: 5.00 to 6.00

Cc1csc(CN2C(=O)CCC2C(=O)C(=O)NCC2CCCC2)n1 (centres unmarked)
pIC50 (PLA2G16): > 6.00
pEC50 [1, 2]: > 6.00

Cc1csc(CN2C(=O)CCC2C(=O)C(=O)NCC2CC2)n1 (centres unmarked)
pIC50 (PLA2G16): > 6.00
pEC50 [1, 2]: 5.00 to 6.00

CC(C)[C@H]1CC(=O)N(Cc2ccccc2)[C@@H]1C(=O)C(=O)NC1CC1 (racemic) [FP 342, 2-[(2S,3R)-1-Benzyl-5-oxo-3-(propan-2-yl)pyrrolidin-2-yl]-N-cyclopropyl-2-oxoacetamide and 2-[(2R,3S)-1-benzyl-5-oxo-3-(propan-2-yl)pyrrolidin-2-yl]-N-cyclopropyl-2-oxoacetamide]
pIC50 (PLA2G16): > 6.00
pEC50 [1, 3]: > 6.00

CC(C)[C@H](C(=O)C(=O)NCC1CC1)N(C=O)CC(C)(C)C (single isomer, unassigned) [FP 32]
pIC50 (PLA2G16): > 6.00
pEC50 [1, 3]: < 5.00

CC(C)[C@@H](C(=O)C(=O)NCC1CC1)N(C=O)CC(C)(C)C (single isomer, unassigned) [FP 33]
pIC50 (PLA2G16): > 6.00
pEC50 [1, 3]: 5.00 to 6.00

Cc1ccccc1C(=O)N[C@@H](C)C(=O)C(=O)NCC1CC1 (single isomer, unassigned) [FP 157]
pIC50 (PLA2G16): > 6.00
pEC50 [1, 3]: 5.00 to 6.00

Cc1ccccc1C(=O)N[C@H](C)C(=O)C(=O)NCC1CC1 (single isomer, unassigned) [FP 158]
pIC50 (PLA2G16): > 6.00
pEC50 [1, 3]: 5.00 to 6.00

O=C(N[C@@H]1CCCC[C@@H]1O)C(=O)[C@H]1CCC(=O)N1Cc1ccccc1 (single isomer, unassigned) [FP 272]
pIC50 (PLA2G16): 5.00 to 6.00
pEC50 [1, 3]: < 5.00

O=C(N[C@H]1CCCC[C@H]1O)C(=O)[C@H]1CCC(=O)N1Cc1ccccc1 (single isomer, unassigned) [FP 273]
pIC50 (PLA2G16): 5.00 to 6.00
pEC50 [1, 3]: 5.00 to 6.00

C[C@H]1CC(=O)N(Cc2ccccc2)[C@@H]1C(=O)C(=O)NCC1CC1 (single isomer, unassigned) [FP 334]
pIC50 (PLA2G16): > 6.00
pEC50 [1, 3]: 5.00 to 6.00

C[C@@H]1CC(=O)N(Cc2ccccc2)[C@@H]1C(=O)C(=O)NCC1CC1 (single isomer, unassigned) [FP 335]
pIC50 (PLA2G16): > 6.00
pEC50 [1, 3]: 5.00 to 6.00

C[C@@H]1CC(=O)N(Cc2ccccc2)[C@H]1C(=O)C(=O)NCC1CC1 (single isomer, unassigned) [FP 336]
pIC50 (PLA2G16): > 6.00
pEC50 [1, 3]: > 6.00

C[C@H]1CC(=O)N(Cc2ccccc2)[C@H]1C(=O)C(=O)NCC1CC1 (single isomer, unassigned) [FP 337]
pIC50 (PLA2G16): > 6.00
pEC50 [1, 3]: > 6.00

C[C@@H]1CC(=O)N(Cc2ccccc2)[C@@H]1C(=O)C(=O)NC1CC1 (single isomer, unassigned) [FP 338]
pIC50 (PLA2G16): > 6.00
pEC50 [1, 4]: 5.00 to 6.00

CC1CC(=O)N(Cc2ccccc2)[C@@H]1C(=O)C(=O)NC1CC1 (single isomer, unassigned) [FP 339]
pIC50 (PLA2G16): 5.00 to 6.00
pEC50 [1, 4]: < 5.00

C[C@@H]1CC(=O)N(Cc2ccccc2)[C@H]1C(=O)C(=O)NC1CC1 (single isomer, unassigned) [FP 340]
pIC50 (PLA2G16): > 6.00
pEC50 [1, 3]: > 6.00

C[C@H]1CC(=O)N(Cc2ccccc2)[C@H]1C(=O)C(=O)NC1CC1 (single isomer, unassigned) [FP 341]
pIC50 (PLA2G16): > 6.00
pEC50 [1, 3]: 5.00 to 6.00

COc1ccccc1N(C=O)C(C)C(=O)C(=O)NCc1cccc(Cl)c1 (centres unmarked) [FP 1, N-[(3-Chlorophenyl)methyl]-3-[N-(2-methoxyphenyl)formamido]-2-oxobutanamide]
pIC50 (PLA2G16): > 6.00
pEC50 [1, 3]: > 6.00

COc1ccc(F)cc1N(C=O)C(C)C(=O)C(=O)NCc1cccc(Cl)c1 (centres unmarked) [FP 7, N-[(3-Chlorophenyl)methyl]-3-[N-(5-fluoro-2-methoxyphenyl)formamido]-2-oxobutanamide]
pIC50 (PLA2G16): > 6.00
pEC50 [1, 3]: > 6.00

CC(OCC1CCCCC1)C(=O)C(=O)NCC1CC1 (centres unmarked) [FP 123, 3-(Cyclohexylmethoxy)-N-(cyclopropylmethyl)-2-oxobutanamide]
pEC50 [1, 5]: 5.00 to 6.00

O=C(NCC1CC1)C(=O)[C@@H]1CCC(=O)N1Cc1ccccc1 [FP 225, 2-[(2S)-1-Benzyl-5-oxopyrrolidin-2-yl]-N-(cyclopropylmethyl)-2-oxoacetamide]
pEC50 [1, 5]: < 5.00

C[C@@H](O)CNC(=O)C(=O)C1CCC(=O)N1Cc1ccc(Cl)cc1 (stereo partly drawn) [FP 259, 2-{1-[(4-Chlorophenyl)methyl]-5-oxopyrrolidin-2-yl}-N-[(2R)-2-hydroxypropyl]-2-oxoacetamide]
pIC50 (PLA2G16): > 6.00

O=C(NC1CC1)C(=O)C1CCC(=O)N1Cc1ccccc1Cl (centres unmarked) [FP 260, 2-{1-[(2-Chlorophenyl)methyl]-5-oxopyrrolidin-2-yl}-N-cyclopropyl-2-oxoacetamide]
pIC50 (PLA2G16): > 6.00

CC(=O)NCCCOCCCCOCCCNC(=O)C(=O)C1CCC(=O)N1Cc1ccc(Cl)cc1 (centres unmarked) [FP 329, 2-{1-[(4-Chlorophenyl)methyl]-5-oxopyrrolidin-2-yl}-N-{3-[4-(3-acetamidopropoxy)butoxy]propyl}-2-oxoacetamide]
pIC50 (PLA2G16): > 6.00
